The target of one test is T1, HSP90a protein (Homo sapiens, UniProt P07900).
T1 construct: purchased BPS Bioscience 50298
Briefly: HSP90α-binding fluorescent polarization (FP) assay, BODIPY-labeled RNK04010 probe. The note with it: FP competition with RNK04010 (BODIPY-labeled), 5 nM, 300 min at 25° C. In outline:
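N-terminal HSP90a construct; tracer 5 nM final (FITC-geldanamycin or BODIPY-RNK04010, a labeled triazolone binder). Compounds 20 μM–5.2 nM, 2.5-fold steps. 25° C, 120 min (FITC) / 300 min (BODIPY). FP readout.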

Test [1] relates to NCI-H358 human non-small cell lung cancer. Briefly: NCI-H358 CCK-8 proliferation assay. In kind it is cell-based. The note with it: NCI-H358 cells, 72 hr. Here is the method:
The following cancer cell lines were employed: BT-474 human breast carcinoma (ATCC, #HTB-20); MIA PaCa-2 human pancreatic carcinoma [2 copies KRAS(G12C)](ATCC, #CRL-1420); NCI-H23 human non-small cell lung cancer [1 copy KRAS(G12C)](ATCC, #CRL-5800); NCI-H358 human non-small cell lung cancer [1 copy KRAS(G12C)](ATCC, #CRL-5807); LU65A human lung carcinoma (Pharmaron, Beijing, China). Cell lines were cultured essentially according to ATCC and Pharmaron recommendations.
Cancer Cell Line Proliferation (CCK-8) Assays
3-fold serial dilutions of each test compound were prepared ranging from 20 μM to 1.02 nM.
% Inhibition=100−(D−B)/(S−B)*100%. • S: Absorbance of cells treated with DMSO • D: Absorbance of compound-treated cells • B: Absorbance of medium with DMSO without cells

On to `C=CC(=O)N1CCN(c2nc(NCCC(=O)N3CCC(CN4CCN(Cc5ccc(-n6c(O)nnc6-c6ccc(O)cc6O)cc5)CC4)CC3)nc3c2CCN(c2cc(O)cc4ccccc24)C3)CC1` [Compound 13, 1-(4-(2-((3-(4-((4-(4-(3-(2,4-dihydroxyphenyl)-5-hydroxy-4H-1,2,4-triazol-4-yl)benzyl)piperazin-1-yl)methyl)piperidin-1-yl)-3-oxopropyl)amino)-7-(3-hydroxynaphthalen-1-yl)-5,6,7,8-tetrahydropyrido[3,4-d]pyrimidin-4-yl)piperazin-1-yl)prop-2-en-1-one, trifluoroacetic acid], for which the IC50 at HSP90a protein was greater than 1000 nM. In test [1], this compound yielded an EC50 greater than 1000 nM.

For `C=CC(=O)N1CCN(c2nc(NCCC(=O)NCCOCCOCCN[C@@H](C)C(=O)N[C@H](C(=O)N3CCC[C@H]3C(=O)Nc3snnc3-c3ccccc3)C3CCCCC3)nc3c2CCN(c2cc(O)cc4ccccc24)C3)CC1` [Compound 20, (S)-1-((2S,5S)-18-((4-(4-acryloylpiperazin-1-yl)-7-(3-hydroxynaphthalen-1-yl)-5,6,7,8-tetrahydropyrido[3,4-d]pyrimidin-2-yl)amino)-2-cyclohexyl-5-methyl-4,16-dioxo-9,12-dioxa-3,6,15-triazaoctadecanoyl)-N-(4-phenyl-1,2,3-thiadiazol-5-yl)pyrrolidine-2-carboxamide, trifluoroacetic acid], the IC50 at HSP90a protein was greater than 1000 nM. This compound gave an EC50 in test [1] greater than 1000 nM.

`CC(=O)N1CCN(c2nc(NCCC(=O)NCCc3ccc(-n4c(O)nnc4-c4cc(C(C)C)c(O)cc4O)cc3)nc3c2CCN(c2cc(O)cc4ccccc24)C3)CC1` [Compound 22, 3-((4-(4-acetylpiperazin-1-yl)-7-(3-hydroxynaphthalen-1-yl)-5,6,7,8-tetrahydropyrido[3,4-d]pyrimidin-2-yl)amino)-N-(4-(3-(2,4-dihydroxy-5-isopropylphenyl)-5-hydroxy-4H-1,2,4-triazol-4-yl)phenethyl)propanamide, trifluoroacetic acid]: the IC50 on HSP90a protein was less than 100 nM. Moreover, the EC50 in test [1] was greater than 1000 nM.

The compound `CC(=O)N1CCN(c2nc(NCCC(=O)N3CCN(Cc4ccc(-n5c(O)nnc5-c5cc(C(C)C)c(O)cc5O)cc4)CC3)nc3c2CCN(c2cc(O)cc4ccccc24)C3)CC1` [Compound 26, 3-((4-(4-acetylpiperazin-1-yl)-7-(3-hydroxynaphthalen-1-yl)-5,6,7,8-tetrahydropyrido[3,4-d]pyrimidin-2-yl)amino)-1-(4-(4-(3-(2,4-dihydroxy-5-isopropylphenyl)-5-hydroxy-4H-1,2,4-triazol-4-yl)benzyl)piperazin-1-yl)propan-1-one, trifluoroacetic acid] displayed an IC50 on HSP90a protein of 100 to 1000 nM. In test [1], the EC50 is greater than 1000 nM.

`C=CC(=O)N1CCN(c2nc(NCCC(=O)NCc3ccc(-n4c(O)nnc4-c4ccc(O)cc4O)cc3)nc3c2CCN(c2cc(O)cc4ccccc24)C3)CC1` [Compound 27, 3-((4-(4-acryloylpiperazin-1-yl)-7-(3-hydroxynaphthalen-1-yl)-5,6,7,8-tetrahydropyrido[3,4-d]pyrimidin-2-yl)amino)-N-(4-(3-(2,4-dihydroxyphenyl)-5-hydroxy-4H-1,2,4-triazol-4-yl)benzyl)propanamide, trifluoroacetic acid]: the IC50 on HSP90a protein was greater than 1000 nM. This compound also registered an EC50 in test [1] greater than 1000 nM.

Regarding `CC(=O)N1CCN(c2nc(NCCC(=O)N3CCC(Cc4ccc(-n5c(O)nnc5-c5cc(C(C)C)c(O)cc5O)cc4)CC3)nc3c2CCN(c2cc(O)cc4ccccc24)C3)CC1` [Compound 28, 3-((4-(4-acetylpiperazin-1-yl)-7-(3-hydroxynaphthalen-1-yl)-5,6,7,8-tetrahydropyrido[3,4-d]pyrimidin-2-yl)amino)-1-(4-(4-(3-(2,4-dihydroxy-5-isopropylphenyl)-5-hydroxy-4H-1,2,4-triazol-4-yl)benzyl)piperidin-1-yl)propan-1-one, trifluoroacetic acid], the IC50 on HSP90a protein was in the range of 100 to 1000 nM. This compound also returned an EC50 in test [1] greater than 1000 nM.

Compound `CC(=O)N1CCN(c2nc(NCCC(=O)N3CCC(CN4CCC(Cc5ccc(-n6c(O)nnc6-c6cc(C(C)C)c(O)cc6O)cc5)CC4)CC3)nc3c2CCN(c2cc(O)cc4ccccc24)C3)CC1` [Compound 29, 3-((4-(4-acetylpiperazin-1-yl)-7-(3-hydroxynaphthalen-1-yl)-5,6,7,8-tetrahydropyrido[3,4-d]pyrimidin-2-yl)amino)-1-(4-((4-(4-(3-(2,4-dihydroxy-5-isopropylphenyl)-5-hydroxy-4H-1,2,4-triazol-4-yl)benzyl)piperidin-1-yl)methyl)piperidin-1-yl)propan-1-one, trifluoroacetic acid] displayed an IC50 on HSP90a protein of 100 to 1000 nM. In test [1], this compound yielded a 50% effective concentration (EC50) greater than 1000 nM.

Consider `CCC(=O)N1CCN(c2nc(NCCC(=O)NCc3ccc(-n4c(O)nnc4-c4cc(C)c(O)cc4O)cc3)nc3c2CCN(c2cc(O)cc4ccccc24)C3)CC1` [Compound 30, N-(4-(3-(2,4-dihydroxy-5-methylphenyl)-5-hydroxy-4H-1,2,4-triazol-4-yl)benzyl)-3-((7-(3-hydroxynaphthalen-1-yl)-4-(4-propionylpiperazin-1-yl)-5,6,7,8-tetrahydropyrido[3,4-d]pyrimidin-2-yl)amino)propanamide, trifluoroacetic acid], for which the IC50 on HSP90a protein is greater than 1000 nM. In test [1], this compound showed an EC50 greater than 1000 nM.

`CCC(=O)N1CCN(c2nc(NCCC(=O)NCc3ccc(-n4c(O)nnc4-c4ccc(O)cc4O)cc3)nc3c2CCN(c2cc(O)cc4ccccc24)C3)CC1` [Compound 31, N-(4-(3-(2,4-dihydroxyphenyl)-5-hydroxy-4H-1,2,4-triazol-4-yl)benzyl)-3-((7-(3-hydroxynaphthalen-1-yl)-4-(4-propionylpiperazin-1-yl)-5,6,7,8-tetrahydropyrido[3,4-d]pyrimidin-2-yl)amino)propanamide, trifluoroacetic acid] yielded an IC50 on HSP90a protein greater than 1000 nM. In test [1], this compound returned an EC50 greater than 1000 nM.

Turning to `CCCc1cc(-c2nnc(O)n2-c2ccc(CNC(=O)CCNc3nc4c(c(N5CCN(C(=O)CC)CC5)n3)CCN(c3cc(O)cc5ccccc35)C4)cc2)c(O)cc1O` [Compound 32, N-(4-(3-(2,4-dihydroxy-5-propylphenyl)-5-hydroxy-4H-1,2,4-triazol-4-yl)benzyl)-3-((7-(3-hydroxynaphthalen-1-yl)-4-(4-propionylpiperazin-1-yl)-5,6,7,8-tetrahydropyrido[3,4-d]pyrimidin-2-yl)amino)propanamide, trifluoroacetic acid], the IC50 at HSP90a protein was greater than 1000 nM. This compound also showed an EC50 in test [1] greater than 1000 nM.

With `CCC(=O)N1CCN(c2nc(NCCC(=O)NCc3ccc(-n4c(O)nnc4-c4cc(C(C)C)c(O)cc4O)cc3F)nc3c2CCN(c2cc(O)cc4ccccc24)C3)CC1` [Compound 33, N-(4-(3-(2,4-dihydroxy-5-isopropylphenyl)-5-hydroxy-4H-1,2,4-triazol-4-yl)-2-fluorobenzyl)-3-((7-(3-hydroxynaphthalen-1-yl)-4-(4-propionylpiperazin-1-yl)-5,6,7,8-tetrahydropyrido[3,4-d]pyrimidin-2-yl)amino)propanamide, trifluoroacetic acid], the IC50 on HSP90a protein was in the range of 100 to 1000 nM. This compound registered an EC50 in test [1] greater than 1000 nM.

With `CCC(=O)N1CCN(c2nc(NCCC(=O)NCc3ccc(-n4c(O)nnc4-c4cc(CC)c(O)cc4O)cc3F)nc3c2CCN(c2cc(O)cc4ccccc24)C3)CC1` [Compound 34, N-(4-(3-(5-ethyl-2,4-dihydroxyphenyl)-5-hydroxy-4H-1,2,4-triazol-4-yl)-2-fluorobenzyl)-3-((7-(3-hydroxynaphthalen-1-yl)-4-(4-propionylpiperazin-1-yl)-5,6,7,8-tetrahydropyrido[3,4-d]pyrimidin-2-yl)amino)propanamide, trifluoroacetic acid], at HSP90a protein, the IC50 is greater than 1000 nM. This compound also registered an EC50 in test [1] greater than 1000 nM.

Consider `CCC(=O)N1CCN(c2nc(NCCC(=O)N3CCN(Cc4ccc(-n5c(O)nnc5-c5cc(C(C)C)c(O)cc5O)cc4)CC3)nc3c2CCN(c2cc(O)cc4ccccc24)C3)CC1` [Compound 35, 1-(4-(4-(3-(2,4-dihydroxy-5-isopropylphenyl)-5-hydroxy-4H-1,2,4-triazol-4-yl)benzyl)piperazin-1-yl)-3-((7-(3-hydroxynaphthalen-1-yl)-4-(4-propionylpiperazin-1-yl)-5,6,7,8-tetrahydropyrido[3,4-d]pyrimidin-2-yl)amino)propan-1-one, trifluoroacetic acid], for which the IC50 on HSP90a protein is 100 to 1000 nM. The same compound showed an EC50 in test [1] greater than 1000 nM.

On to `C=CC(=O)N1CCN(c2nc(NCCC(=O)NCc3ccc(-n4c(O)nnc4-c4cc(C(C)C)c(O)cc4O)cc3C(F)(F)F)nc3c2CCN(c2cc(O)cc4ccccc24)C3)CC1` [Compound 36, 3-((4-(4-acryloylpiperazin-1-yl)-7-(3-hydroxynaphthalen-1-yl)-5,6,7,8-tetrahydropyrido[3,4-d]pyrimidin-2-yl)amino)-N-(4-(3-(2,4-dihydroxy-5-isopropylphenyl)-5-hydroxy-4H-1,2,4-triazol-4-yl)-2-(trifluoromethyl)benzyl)propanamide, trifluoroacetic acid], for which the IC50 at HSP90a protein lay in the range of 100 to 1000 nM. In addition, the EC50 in test [1] is greater than 1000 nM.

These data come from patent publication US20230391772A1, “METHODS AND COMPOSITIONS FOR TARGETED PROTEIN DEGRADATION” (Ranok Therapeutics (Hangzhou) Co. Ltd., priority 2020, published 2023).
